How the values were obtained:
[1] = test system: MATSS: scented mayweed (Matricaria chamomilla), pineappleweed (Matricaria matricarioides); assay: Post-emergent Test III, herbicidal activity in wheat and barley; assay type: in vivo; details: for pest or weed control at 35 g/ha / pest or weed control at 70 g/ha / pest or weed control at 140 g/ha: Matricaria chamomilla, post-emergence, 504 h, read-out: Visual Growth Reduction (%) 21 Days After Application MATSS; for pest or weed control at 35 g/ha: 35 g ai/ha; for pest or weed control at 70 g/ha: 70 g ai/ha; for pest or weed control at 140 g/ha: 140 g ai/ha; for GR50 MATSS / GR80 MATSS: probit analysis, 21 days after application; for GR50 MATSS: dose for growth reduction of 50 percent; for GR80 MATSS: dose for growth reduction of 80 percent
Outline: (§1)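 GR20, GR50, GR80 and GR90 come from probit analysis of visual injury scores (0 = none, 100 = complete kill) taken 21 d after treatment. Foliar application was by track sprayer delivering 187 L/ha at five rates, from high down to 1/16×, onto greenhouse plants at the 2–3 leaf stage, with solvent-blank controls.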

[2] = as above; assay type: in vivo, Lolium multiflorum, Lolium rigidum; details: Lolium multiflorum, post-emergence, 504 h, read-out: Visual Growth Reduction (%) 21 Days After Application LOLSS; for pest or weed control at 35 g/ha: 35 g ai/ha; for pest or weed control at 70 g/ha: 70 g ai/ha; for pest or weed control at 140 g/ha: 140 g ai/ha
Outline: as §1

[3] = test system: APESV: bentgrass (Apera spica-venti); assay: as above; assay type: in vivo; details: for pest or weed control at 35 g/ha / pest or weed control at 70 g/ha / pest or weed control at 140 g/ha: Apera spica-venti, post-emergence, 504 h, read-out: Visual Growth Reduction (%) 21 Days After Application APESV; for pest or weed control at 35 g/ha: 35 g ai/ha; for pest or weed control at 70 g/ha: 70 g ai/ha; for pest or weed control at 140 g/ha: 140 g ai/ha; for GR50 APESV / GR80 APESV: probit analysis, 21 days after application; for GR50 APESV: dose for growth reduction of 50 percent; for GR80 APESV: dose for growth reduction of 80 percent
Outline: as §1

[4] = test system: HORSS: barley, including spring and winter (Hordeum vulgare); assay: as above; assay type: in vivo; details: for pest or weed control at 35 g/ha / pest or weed control at 70 g/ha / pest or weed control at 140 g/ha: Hordeum vulgare, post-emergence, 504 h, read-out: Visual Growth Reduction (%) 21 Days After Application HORSS; for pest or weed control at 35 g/ha: 35 g ai/ha; for pest or weed control at 70 g/ha: 70 g ai/ha; for pest or weed control at 140 g/ha: 140 g ai/ha; for GR20 HORSS: probit analysis, dose for growth reduction of 20 percent, 21 days after application, crop
Outline: as §1

[5] = test system: TRZSS: wheat, including spring and winter (Triticum aestivum); assay: as above; assay type: in vivo; details: for pest or weed control at 35 g/ha / pest or weed control at 70 g/ha / pest or weed control at 140 g/ha: Triticum aestivum, post-emergence, 504 h, read-out: Visual Growth Reduction (%) 21 Days After Application TRZSS; for pest or weed control at 35 g/ha: 35 g ai/ha; for pest or weed control at 70 g/ha: 70 g ai/ha; for pest or weed control at 140 g/ha: 140 g ai/ha; for GR20 TRZSS: probit analysis, dose for growth reduction of 20 percent, 21 days after application, crop
Outline: as §1

[6] = test system: LOLSS: ryegrass including, Italian ryegrass (Lolium multiflorum), rigid ryegrass (Lolium rigidum), annual ryegrass (Lolium multiflorum subsp. Gaudini); assay: as above; assay type: in vivo; details: probit analysis, 21 days after application; for GR50 LOLSS: dose for growth reduction of 50 percent; for GR80 LOLSS: dose for growth reduction of 80 percent
Outline: as §1

[7] = test system: KCHSC: kochia (Kochia scoparia); assay: as above; assay type: in vivo; details: for pest or weed control at 35 g/ha / pest or weed control at 70 g/ha / pest or weed control at 140 g/ha: Bassia scoparia, post-emergence, 504 h, read-out: Visual Growth Reduction (%) 21 Days After Application KCHSC; for pest or weed control at 35 g/ha: 35 g ai/ha; for pest or weed control at 70 g/ha: 70 g ai/ha; for pest or weed control at 140 g/ha: 140 g ai/ha; for GR50 KCHSC / GR80 KCHSC: probit analysis, 21 days after application; for GR50 KCHSC: dose for growth reduction of 50 percent; for GR80 KCHSC: dose for growth reduction of 80 percent
Outline: as §1

[8] = test system: SETVI: green foxtail (Setaria viridis); assay: as above; assay type: in vivo; details: for pest or weed control at 35 g/ha / pest or weed control at 70 g/ha / pest or weed control at 140 g/ha: Setaria viridis, post-emergence, 504 h, read-out: Visual Growth Reduction (%) 21 Days After Application SETVI; for pest or weed control at 35 g/ha: 35 g ai/ha; for pest or weed control at 70 g/ha: 70 g ai/ha; for pest or weed control at 140 g/ha: 140 g ai/ha; for GR50 SETVI / GR80 SETVI: probit analysis, 21 days after application; for GR50 SETVI: dose for growth reduction of 50 percent; for GR80 SETVI: dose for growth reduction of 80 percent
Outline: as §1

| SMILES | pest or weed control at 35 g/ha [1] [%] | pest or weed control at 70 g/ha [1] [%] | pest or weed control at 140 g/ha [1] [%] | GR50 MATSS [1] [g ai/ha] | GR80 MATSS [1] [g ai/ha] | pest or weed control at 35 g/ha [2] [%] | pest or weed control at 70 g/ha [2] [%] | pest or weed control at 140 g/ha [2] [%] | pest or weed control at 35 g/ha [3] [%] | pest or weed control at 70 g/ha [3] [%] | pest or weed control at 140 g/ha [3] [%] | GR50 APESV [3] [g ai/ha] | GR80 APESV [3] [g ai/ha] | pest or weed control at 35 g/ha [4] [%] | pest or weed control at 70 g/ha [4] [%] | pest or weed control at 140 g/ha [4] [%] | GR20 HORSS [4] [g ai/ha] | pest or weed control at 35 g/ha [5] [%] | pest or weed control at 70 g/ha [5] [%] | pest or weed control at 140 g/ha [5] [%] | further results |
| --- | --- | --- | --- | --- | --- | --- | --- | --- | --- | --- | --- | --- | --- | --- | --- | --- | --- | --- | --- | --- | --- |
| COC(=O)c1nc(-c2ccc(Br)cc2)c(F)c(N)c1Cl [Compound 138, Methyl 4-amino-6-(4-bromophenyl)-3-chloro-5-fluoropicolinate] | 60 to 74 | 85 to 94 | 85 to 94 | 16 | 51 | 60 to 74 | 75 to 84 | 85 to 94 | 85 to 94 | 85 to 94 | 95 to 100 | 2 | 12 | 85 to 94 | 85 to 94 | 95 to 100 | 1 | 85 to 94 | 85 to 94 | 85 to 94 | GR20 TRZSS [5]: 1 g ai/ha; GR50 LOLSS [6]: 20 g ai/ha; GR80 LOLSS [6]: 66 g ai/ha; pest or weed control at 35 g/ha [7]: 95 to 100%; pest or weed control at 70 g/ha [7]: 95 to 100%; pest or weed control at 140 g/ha [7]: 95 to 100%; GR50 KCHSC [7]: 1 g ai/ha; GR80 KCHSC [7]: 4 g ai/ha; pest or weed control at 35 g/ha [8]: 85 to 94%; pest or weed control at 70 g/ha [8]: 85 to 94%; pest or weed control at 140 g/ha [8]: 95 to 100%; GR50 SETVI [8]: 8 g ai/ha; GR80 SETVI [8]: 32 g ai/ha |
| Nc1c(F)c(-c2ccc(Br)cc2)nc(C(=O)O)c1Cl [Compound 20] | 95 to 100 | 95 to 100 | 95 to 100 | 1 | 1 | 45 to 59 | 60 to 74 | 60 to 74 | 85 to 94 | 85 to 94 | 85 to 94 | 2 | 12 | 85 to 94 | 95 to 100 | 95 to 100 | 1 | 85 to 94 | 85 to 94 | 85 to 94 | GR20 TRZSS [5]: 1 g ai/ha; GR50 LOLSS [6]: 25 g ai/ha; GR80 LOLSS [6]: >140 g ai/ha; pest or weed control at 35 g/ha [7]: 95 to 100%; pest or weed control at 70 g/ha [7]: 95 to 100%; pest or weed control at 140 g/ha [7]: 95 to 100%; GR50 KCHSC [7]: 2 g ai/ha; GR80 KCHSC [7]: 5 g ai/ha; pest or weed control at 35 g/ha [8]: 95 to 100%; pest or weed control at 70 g/ha [8]: 95 to 100%; pest or weed control at 140 g/ha [8]: 95 to 100%; GR50 SETVI [8]: 4 g ai/ha; GR80 SETVI [8]: 10 g ai/ha |
| N#Cc1ccc(-c2nc(C(=O)O)c(Cl)c(N)c2F)cc1 [Compound 39] | 95 to 100 | 95 to 100 | 95 to 100 | 1 | 1 | 30 to 44 | 45 to 59 | 60 to 74 | 30 to 44 | 45 to 59 | 60 to 74 | 70 | >140 | 30 to 44 | 45 to 59 | 60 to 74 | 18 | 75 to 84 | 75 to 84 | 85 to 94 | GR20 TRZSS [5]: 1 g ai/ha; GR50 LOLSS [6]: 82 g ai/ha; GR80 LOLSS [6]: >140 g ai/ha; pest or weed control at 35 g/ha [7]: 75 to 84%; pest or weed control at 70 g/ha [7]: 85 to 94%; pest or weed control at 140 g/ha [7]: 85 to 94%; GR50 KCHSC [7]: 3 g ai/ha; GR80 KCHSC [7]: 40 g ai/ha; pest or weed control at 35 g/ha [8]: 30 to 44%; pest or weed control at 70 g/ha [8]: 45 to 59%; pest or weed control at 140 g/ha [8]: 60 to 74%; GR50 SETVI [8]: 68 g ai/ha; GR80 SETVI [8]: >140 g ai/ha |
| Nc1c(F)c(-c2ccc(I)cc2)nc(C(=O)O)c1Cl [Compound 45, 4-amino-3-chloro-5-fluoro-6-(4-iodophenyl)picolinic acid] | 85 to 94 | 95 to 100 | 95 to 100 | 2 | 29 | 60 to 74 | 75 to 84 | 85 to 94 | 85 to 94 | 85 to 94 | 95 to 100 | 8 | 25 | 85 to 94 | 85 to 94 | 95 to 100 | 1 | 85 to 94 | 85 to 94 | 85 to 94 | GR20 TRZSS [5]: 1 g ai/ha; GR50 LOLSS [6]: 20 g ai/ha; GR80 LOLSS [6]: 69 g ai/ha; pest or weed control at 35 g/ha [7]: 85 to 94%; pest or weed control at 70 g/ha [7]: 95 to 100%; pest or weed control at 140 g/ha [7]: 95 to 100%; GR50 KCHSC [7]: 2 g ai/ha; GR80 KCHSC [7]: 9 g ai/ha; pest or weed control at 35 g/ha [8]: 60 to 74%; pest or weed control at 70 g/ha [8]: 85 to 94%; pest or weed control at 140 g/ha [8]: 95 to 100%; GR50 SETVI [8]: 18 g ai/ha; GR80 SETVI [8]: 52 g ai/ha |
| COC(=O)c1nc(-c2ccc(I)cc2)c(F)c(N)c1Cl [Compound 118, Methyl 4-amino-6-(4-iodophenyl)-3-chloro-5-fluoropicolinate] | 60 to 74 | 75 to 84 | 85 to 94 | 14 | 60 | 30 to 44 | 60 to 74 | 75 to 84 | 60 to 74 | 75 to 84 | 85 to 94 | 22 | 60 | 85 to 94 | 85 to 94 | 85 to 94 | 1 | 75 to 84 | 85 to 94 | 85 to 94 | GR20 TRZSS [5]: 0 g ai/ha; GR50 LOLSS [6]: 49 g ai/ha; GR80 LOLSS [6]: 121 g ai/ha; pest or weed control at 35 g/ha [7]: 85 to 94%; pest or weed control at 70 g/ha [7]: 85 to 94%; pest or weed control at 140 g/ha [7]: 95 to 100%; GR50 KCHSC [7]: 3 g ai/ha; GR80 KCHSC [7]: 17 g ai/ha; pest or weed control at 35 g/ha [8]: 0 to 29%; pest or weed control at 70 g/ha [8]: 30 to 44%; pest or weed control at 140 g/ha [8]: 60 to 74%; GR50 SETVI [8]: 91 g ai/ha; GR80 SETVI [8]: 184 g ai/ha |

Source: patent publication US9113629B2, “4-amino-6-(4-substituted-phenyl)-picolinates and 6-amino-2-(4-substituted-phenyl)-pyrimidine-4-carboxylates and their use as herbicides” (DOW AGROSCIENCES LLC, priority 2013, dated 2015)
